Assay results: patent US20110184057A1, “PARENTERAL TREATMENT WITH STATINS” (priority 2008, published 2011)

Test: Plasma lovastatin levels in rats after a single oral or dermal dose, by HMG-CoA reductase inhibition assay
Assay type: in vivo, rat
Details: intact rats, single dose, 1, 3, 6 and 24 hours; dermal in 100% DMSO vs oral gavage in 0.5% methylcellulose
Protocol: For oral administration, a suspension of lovastatin was prepared in 0.5% methylcellulose and administered by gavage.

CC[C@H](C)C(=O)O[C@H]1C[C@@H](C)C=C2C=C[C@H](C)[C@H](CC[C@@H]3C[C@@H](O)CC(=O)O3)[C@H]21 [lovastatin]
plasma concentrations of lovastatin, dermal versus oral: greater, less variable and more prolonged than when the drug was given orally
